The results in this text go back to patent US20250215012A1, “IKZF2 DEGRADERS AND USES THEREOF” (REGENTS OF THE UNIVERSITY OF MICHIGAN, priority 2022, published 2025).

Holding throughout (format): cell-based
Test [1] deals with IKZF1 (Homo sapiens (Human), UniProt Q13422+Q96SW2). As to the kind of experiment: IKZF1 HiBit Assay (HEK293T Flp-in-HiBiT-IKZF1 stable cell line). Particulars: HEK293T Flp-in-HiBiT-IKZF1 cells, 6 hrs; for DC50: read-out: IKZF1 HiBit degradation DC50; for Dmax: HEK-293T, read-out: IKZF1 HiBit degradation Dmax. Here is the method: The HiBiT protein tagging system was applied to modified Cells: modified HEK293T Flp-in-HiBiT-IKZF1 stable cell line (polyclone) via a CRISPR/Cas9—mediated insertion of the HiBiT peptide tag (Promega™) to the N-terminus of the IKZF2 gene locus (Neon™ transfection system).
Sequence of IKZF1 (Q13422 whole entry): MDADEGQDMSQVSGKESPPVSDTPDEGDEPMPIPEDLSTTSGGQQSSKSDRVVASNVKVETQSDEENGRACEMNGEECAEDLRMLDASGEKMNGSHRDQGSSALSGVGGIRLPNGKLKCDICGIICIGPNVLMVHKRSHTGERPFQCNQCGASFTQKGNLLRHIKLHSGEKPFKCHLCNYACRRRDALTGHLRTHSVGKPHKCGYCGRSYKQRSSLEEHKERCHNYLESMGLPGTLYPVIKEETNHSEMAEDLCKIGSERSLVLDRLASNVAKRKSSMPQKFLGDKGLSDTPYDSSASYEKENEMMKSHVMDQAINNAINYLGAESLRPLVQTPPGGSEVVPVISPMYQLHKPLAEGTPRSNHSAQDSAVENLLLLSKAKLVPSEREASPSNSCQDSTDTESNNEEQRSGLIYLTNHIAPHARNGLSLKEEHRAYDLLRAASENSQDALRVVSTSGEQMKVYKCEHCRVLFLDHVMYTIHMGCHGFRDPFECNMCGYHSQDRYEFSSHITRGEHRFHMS
Sequence of IKZF1 (Q96SW2 whole entry): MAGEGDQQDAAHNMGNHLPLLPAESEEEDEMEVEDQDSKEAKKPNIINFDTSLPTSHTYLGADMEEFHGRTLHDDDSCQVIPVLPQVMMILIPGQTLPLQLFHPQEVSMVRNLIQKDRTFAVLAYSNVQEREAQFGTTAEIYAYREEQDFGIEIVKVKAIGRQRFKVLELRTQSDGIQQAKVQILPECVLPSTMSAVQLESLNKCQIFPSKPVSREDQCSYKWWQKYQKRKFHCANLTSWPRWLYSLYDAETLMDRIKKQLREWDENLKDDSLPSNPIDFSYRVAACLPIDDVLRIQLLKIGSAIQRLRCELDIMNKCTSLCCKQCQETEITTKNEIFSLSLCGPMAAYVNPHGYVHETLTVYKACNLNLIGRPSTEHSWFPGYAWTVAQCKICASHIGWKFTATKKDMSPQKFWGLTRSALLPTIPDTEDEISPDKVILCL
Sequence of IKZF1 (Q16531 whole entry partner): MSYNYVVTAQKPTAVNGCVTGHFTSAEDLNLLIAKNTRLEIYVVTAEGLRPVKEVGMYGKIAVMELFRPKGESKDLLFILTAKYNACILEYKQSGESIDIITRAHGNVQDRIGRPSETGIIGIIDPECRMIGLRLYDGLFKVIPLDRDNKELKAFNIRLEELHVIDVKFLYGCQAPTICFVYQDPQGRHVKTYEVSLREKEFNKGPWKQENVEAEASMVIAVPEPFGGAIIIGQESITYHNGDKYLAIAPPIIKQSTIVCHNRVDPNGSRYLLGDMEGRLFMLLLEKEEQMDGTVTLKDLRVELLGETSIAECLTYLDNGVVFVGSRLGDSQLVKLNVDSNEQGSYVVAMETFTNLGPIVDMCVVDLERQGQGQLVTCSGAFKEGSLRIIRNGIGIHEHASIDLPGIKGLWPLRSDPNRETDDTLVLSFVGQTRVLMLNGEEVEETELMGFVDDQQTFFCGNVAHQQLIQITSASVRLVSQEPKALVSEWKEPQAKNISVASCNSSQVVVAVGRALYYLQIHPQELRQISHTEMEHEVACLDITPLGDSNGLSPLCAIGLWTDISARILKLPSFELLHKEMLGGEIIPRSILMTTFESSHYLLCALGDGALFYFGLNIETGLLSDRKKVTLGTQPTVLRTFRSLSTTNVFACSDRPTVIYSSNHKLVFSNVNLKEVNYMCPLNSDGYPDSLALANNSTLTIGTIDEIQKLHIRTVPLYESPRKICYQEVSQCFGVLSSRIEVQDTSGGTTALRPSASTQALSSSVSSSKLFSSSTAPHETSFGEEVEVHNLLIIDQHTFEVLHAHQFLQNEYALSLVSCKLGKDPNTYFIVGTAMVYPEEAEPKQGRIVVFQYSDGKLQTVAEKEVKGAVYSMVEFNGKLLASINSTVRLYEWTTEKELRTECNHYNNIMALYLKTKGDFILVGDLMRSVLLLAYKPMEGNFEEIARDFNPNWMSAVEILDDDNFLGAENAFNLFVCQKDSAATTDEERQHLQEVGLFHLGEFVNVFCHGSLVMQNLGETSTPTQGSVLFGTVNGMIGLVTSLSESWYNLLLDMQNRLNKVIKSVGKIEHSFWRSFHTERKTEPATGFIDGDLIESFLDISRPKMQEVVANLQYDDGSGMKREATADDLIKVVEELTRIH
Test compound from 10 mM and reference compound (CC-92480 from 50 mM and I-57 from 10 mM) are diluted at 3 folds for 11 doses. 25 nL of diluted compound is transferred to assay plates (Corning3571) using ECHO550, the final DMSO concentration @0.1%. The cells are seeded in 3000/[…]/well to compound plates. The plates are incubated for 6 hrs in TC incubator. The amount of Nano-Glo® HiBiT lytic reagent needed to perform the desired experiments is calculated. The Nano-Glo® HiBiT lytic reagent is brought to room temperature. The LgBiT protein is diluted to 1:100 and the Nano-Glo® HiBiT lytic substrate is brought to 1:50 into an appropriate volume of room temperature Nano-Glo® HiBiT lytic buffer. […] of the detection reagent (or without LgBiT) is dispensed to corresponding well according to the layout. The plate is shaked for 10 mins at room temperature. After briefly centrifuging, the plate is read on Envision. At the indicated timepoints, the Nano-Glo® HiBiT lytic detection system (Promega™) was utilized for detecting bioluminescence of the HiBiT tag in treated cells: abundance of the tag is proportionate to the level of luminescence. Following normalization to DMSO, dose-response curves were plotted (GraphPad Prism) to determine the concentration points at which 50% of HiBiT-Ikaros degradation was achieved by each compound. The extent of degradation (range of luminescence) from the highest to lowest concentration points was calculated to determine the Dm.
A general note: With HiBiT, luminescence reflects the tagged protein that the partner subunit can reach.

The target of test [2] is T1, IKZF2 (Homo sapiens (Human), UniProt Q96SW2+Q9UKS7). As to the kind of experiment: IKZF2 HiBit Assay (HEK293T Flp-in-HiBiT cells). Particulars: HEK293T Flp-in-HiBiT cells, 6 hrs; for DC50: read-out: IKZF2 HiBit degradation DC50; for Dmax: HEK-293T, read-out: IKZF2 HiBit degradation Dmax. The procedure: The HiBiT protein tagging system was applied to modified HEK293T Flp-in-HiBiT cells (polyclone) via a CRISPR/Cas9—mediated insertion of the HiBiT peptide tag (Promega™) to the N-terminus of the IKZF2 gene locus (Neon™ transfection system). Test and reference compounds are diluted from 1 mM at 3 folds for 11 doses. 25 nL of diluted compound is transferred to assay plates (Corning3570) using ECHO550, the final DMSO concentration @0.1%. The cells are seeded in 3000/[…]/well to compound plates. It is then incubated for 6 hrs in TC incubator. The amount of Nano-Glo® HiBiT lytic reagent needed to perform the desired experiments is calculated. The Nano-Glo® HiBiT lytic reagent is brought to room temperature. The LgBiT protein is diluted to 1:100 and the Nano-Glo® HiBiT lytic substrate is diluted to 1:50 into an appropriate volume of room temperature Nano-Glo® HiBiT lytic buffer. […] of the detection reagent (or without LgBiT) is dispensed to corresponding well according to the layout. The plate is then shaked for 10 mins at room temperature. After briefly centrifuge, the plate is read on Envision. At the indicated timepoints, the Nano-Glo® HiBiT lytic detection system (Promega™) was utilized for detecting bioluminescence of the HiBiT tag in treated cells: abundance of the tag is proportionate to the level of luminescence. Following normalization to DMSO, dose-response curves were plotted (GraphPad Prism) to determine the concentration points at which 50% of HiBiT-Helios degradation was achieved by each compound. The extent of degradation (range of luminescence) from the highest to lowest concentration points was calculated to determine the Dmax.
T1 sequence (Q9UKS7 whole entry): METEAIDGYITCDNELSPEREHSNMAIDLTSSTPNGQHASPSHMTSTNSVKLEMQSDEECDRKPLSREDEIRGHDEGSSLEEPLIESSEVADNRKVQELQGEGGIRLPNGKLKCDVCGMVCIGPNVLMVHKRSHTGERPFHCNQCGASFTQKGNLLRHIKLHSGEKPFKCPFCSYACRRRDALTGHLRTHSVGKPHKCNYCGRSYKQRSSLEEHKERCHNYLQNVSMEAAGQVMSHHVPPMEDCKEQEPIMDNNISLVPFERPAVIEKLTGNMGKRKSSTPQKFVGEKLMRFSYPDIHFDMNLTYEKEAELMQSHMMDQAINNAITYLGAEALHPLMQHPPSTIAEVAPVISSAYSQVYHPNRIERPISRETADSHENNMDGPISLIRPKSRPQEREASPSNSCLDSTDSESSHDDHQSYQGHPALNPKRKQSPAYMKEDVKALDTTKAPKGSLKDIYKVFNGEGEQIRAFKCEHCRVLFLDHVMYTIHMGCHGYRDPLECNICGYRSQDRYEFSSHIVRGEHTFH
T1 sequence (Q96SW2 whole entry): as the sequence (Q96SW2 whole entry) above
T1 sequence (Q16531 whole entry partner): as the sequence (Q16531 whole entry partner) above

The target of test [3] is T1, IKZF2. As to the kind of experiment: IKZF2 HiBiT Assay (Jurkat-IKZF2-HiBiT cell line). The conditions noted are these: Jurkat-IKZF2-HiBiT cells, 24 hours; for DC50: read-out: HiBit assay degradation analysis DC50; for Dmax: read-out: HiBit assay degradation analysis Dmax. The method in brief:
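Jurkat cells carrying HiBiT-tagged IKZF2 were exposed to serially diluted compound for 24 h at 37 °C. Remaining IKZF2 was measured by Nano-Glo HiBiT lytic luminescence after 10-20 min at room temperature. Signal was normalized to DMSO, and IC50 came from a four-parameter variable-slope fit.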

On to `O=C1CCC(N2Cc3c(ccc4c3OCC43CCN(Cc4cccc5cn[nH]c45)CC3O)C2=O)C(=O)N1` (stereo not shown) [Compound B24, 3-(1′-((1H-indazol-7-yl)methyl)-3′-hydroxy-6-oxo-6,8-dihydro-2H,7H-spiro[furo[2,3-e]isoindole-3,4′-piperidin]-7-yl)piperidine-2,6-dione], for which, in test [1], the DC50 was > 1000 nM and the Dmax was < 20%. In test [2], the DC50 lay in the range of 10 to 100 nM and the greatest degradation seen (Dmax) is 60 to 80%.

With `O=C1CC[C@@H](N2Cc3c(ccc4c3OCC43CCN(Cc4cccc(-c5cnn(C6COC6)c5)c4)CC3)C2=O)C(=O)N1` [Compound B15, (R)-3-(1′-(3-(1-(oxetan-3-yl)-1H-pyrazol-4-yl)benzyl)-6-oxo-6,8-dihydro-2H,7H-spiro[furo[2,3-e]isoindole-3,4′-piperidin]-7-yl)piperidine-2,6-dione], in test [1], the DC50 is > 1000 nM and the Dmax is < 20%. Further, in test [2], the DC50 is 1 to 10 nM and the Dmax is > 80%.

For the compound `O=C1CC[C@H](N2Cc3c(ccc4c3OCC43CCN(Cc4cnn(CC5CCS(=O)(=O)CC5)c4)CC3(F)F)C2=O)C(=O)N1` (stereo partly drawn) [Compound B47, (3S)-3-(1′-((1-((1,1-dioxidotetrahydro-2H-thiopyran-4-yl)methyl)-1H-pyrazol-4-yl)methyl)-3′,3′-difluoro-6-oxo-6,8-dihydro-2H,7H-spiro[furo[2,3-e]isoindole-3,4′-piperidin]-7-yl)piperidine-2,6-dione], the figures for the half-maximal degradation concentration (DC50) in test [1] and in test [2] were > 1000 nM and 10 to 100 nM, respectively. Also, the Dmax in test [1] is < 20%; in test [2], 60 to 80%.

On to `O=C1CCC(N2Cc3c(ccc4c3OCC43CCN(Cc4ccccc4)CC3(F)F)C2=O)C(=O)N1` (stereo not shown) [Compound B25, 3-(1′-benzyl-3′,3′-difluoro-6-oxo-6,8-dihydro-2H,7H-spiro[furo[2,3-e]isoindole-3,4′-piperidin]-7-yl)piperidine-2,6-dione], for which, in test [1], the DC50 was 1 to 10 nM and the greatest degradation seen (Dmax) lay in the range of 20 to 40%. For the same compound, in test [2], the DC50 was in the range of 1 to 10 nM and the maximal degradation (Dmax) was 60 to 80%.

With `O=C1CC[C@H](N2Cc3c(ccc4c3NCC43CCN(Cc4ccccc4)CC3)C2=O)C(=O)N1` [Compound B56, (S)-3-(1-benzyl-6′-oxo-1′,2′,6′,8′-tetrahydro-7′H-spiro[piperidine-4,3′-pyrrolo[3,4-g]indol]-7′-yl)piperidine-2,6-dione], in test [1], the DC50 was > 1000 nM and the maximal degradation (Dmax) was < 20%. In test [2], the DC50 lay within 10 to 100 nM and the Dmax lay in the range of 40 to 60%.

Regarding `N#Cc1ccc(-n2cc(CN3CCC4(CC3)CNc3c4ccc4c3CN([C@H]3CCC(=O)NC3=O)C4=O)cn2)cc1` [Compound B58, (S)-4-(4-((7′-(2,6-dioxopiperidin-3-yl)-6′-oxo-1′,6′,7′,8′-tetrahydro-2′H-spiro[piperidine-4,3′-pyrrolo[3,4-g]indol]-1-yl)methyl)-1H-pyrazol-1-yl)benzonitrile], in test [1], the DC50 was > 1000 nM and the Dmax was < 20%. Besides, in test [2], the DC50 is 1 to 10 nM and the Dmax was 40 to 60%.

`Cn1cc(-c2cccc(CN3CCC4(CC3)CNc3c4ccc4c3CN([C@H]3CCC(=O)NC3=O)C4=O)c2)cn1` [Compound B57, (S)-3-(1-(3-(1-methyl-1H-pyrazol-4-yl)benzyl)-6′-oxo-1′,2′,6′,8′-tetrahydro-7′H-spiro[piperidine-4,3′-pyrrolo[3,4-g]indol]-7′-yl)piperidine-2,6-dione]: in test [1], the DC50 was > 1000 nM and the Dmax was < 20%. For the same compound, in test [2], the DC50 was 10 to 100 nM and the Dmax lay within 60 to 80%.

With `O=C1CC[C@H](N2Cc3c(ccc4c3OC[C@@]43CCN(Cc4cccc(-c5cnn(C6COC6)c5)c4)CC3(F)F)C2=O)C(=O)N1` [Compound B54, (S)-3-((R)-3′,3′-difluoro-1′-(3-(1-(oxetan-3-yl)-1H-pyrazol-4-yl)benzyl)-6-oxo-6,8-dihydro-2H,7H-spiro[furo[2,3-e]isoindole-3,4′-piperidin]-7-yl)piperidine-2,6-dione], in test [1], the DC50 is > 1000 nM and the Dmax lay within 20 to 40%. For the same compound, in test [2], the DC50 fell in the range of 1 to 10 nM and the Dmax lay in the range of 60 to 80%.

On to `O=C1CCC(N2Cc3c(ccc4c3OCC43CCN(Cc4ccc5c(cnn5CCO)c4)CC3)C2=O)C(=O)N1` (stereo not shown) [Compound A344, 3-(1′-((1-(2-hydroxyethyl)-1H-indazol-5-yl)methyl)-6-oxo-6,8-dihydro-2H,7H-spiro[furo[2,3-e]isoindole-3,4′-piperidin]-7-yl)piperidine-2,6-dione], for which, in test [3], the DC50 was > 500 nM and the Dmax was 40 to 60%.

As to `O=C1CCC(N2Cc3c(ccc4c3OCC43CCN(Cc4cccc5c4NC(=O)C5)CC3)C2=O)C(=O)N1` (stereo not shown) [Compound A152, 3-(6-oxo-1′-((2-oxoindolin-7-yl)methyl)-6,8-dihydro-2H,7H-spiro[furo[2,3-e]isoindole-3,4′-piperidin]-7-yl)piperidine-2,6-dione], in test [3], the DC50 lay within 50 to 200 nM and the Dmax was 60 to 80%.

In the case of `O=C1CCC(N2Cc3c(ccc4c3OCC43CCN(Cc4cnn(S(=O)(=O)c5ccc(F)c(F)c5)c4)CC3)C2=O)C(=O)N1` [Compound A353, (S)-3-(1′-((1-((3,4-difluorophenyl)sulfonyl)-1H-pyrazol-4-yl)methyl)-6-oxo-6,8-dihydro-2H,7H-spiro[furo[2,3-e]isoindole-3,4′-piperidin]-7-yl)piperidine-2,6-dione], in test [3], the DC50 is > 500 nM.

For `O=C1CCC(N2Cc3c(ccc4c3OCCC43CCN(Cc4ccc(C(F)F)cc4)CC3)C2=O)C(=O)N1` (stereo not shown) [Compound A9, 3-(1-(4-(difluoromethyl)benzyl)-7′-oxo-2′,3′,7′,9′-tetrahydro-8′H-spiro[piperidine-4,4′-pyrano[2,3-e]isoindol]-8′-yl)piperidine-2,6-dione], in test [3], the DC50 was > 500 nM and the Dmax was < 40%.

On to `O=C1CCC(N2Cc3c(ccc4c3OCC43CCN(Cc4cnn(-c5ccccc5Cl)c4)CC3)C2=O)C(=O)N1` (stereo not shown) [Compound A331, 3-(1′-((1-(2-chlorophenyl)-1H-pyrazol-4-yl)methyl)-6-oxo-6,8-dihydro-2H,7H-spiro[furo[2,3-e]isoindole-3,4′-piperidin]-7-yl) piperidine-2,6-dione], for which, in test [3], the DC50 is > 500 nM and the Dmax is < 40%.

`O=C1CCC(N2Cc3c(ccc4c3OCC43CCN(Cc4cnn(Cc5cccc(F)c5)c4)CC3)C2=O)C(=O)N1` (stereo not shown) [Compound A238, 3-(1′-((1-(3-fluorobenzyl)-1H-pyrazol-4-yl)methyl)-6-oxo-6,8-dihydro-2H,7H-spiro[furo[2,3-e]isoindole-3,4′-piperidin]-7-yl)piperidine-2,6-dione]: in test [3], the DC50 is < 50 nM and the Dmax lay within 60 to 80%.

The DC50 is the concentration giving 50% degradation. The term Dmax denotes the greatest extent of degradation seen.
